Source: patent US10988478B1, “Pyrazolo[1,5a]pyrimidine derivatives as IRAK4 modulators” (Genentech, Inc., priority 2015, dated 2021)

Target: human IRAK4 (Homo sapiens (Human), UniProt Q9NWZ3)
Test: IRAK4 kinase inhibition, Transcreener fluorescence polarization ADP assay
Assay type: biochemical
Conditions: recombinant full-length His6-IRAK4; 125 uM ATP; 90 min; Ki computed using ATP Km 642 uM
Method: Compounds were assayed for inhibition of human IRAK4 and IRAK1 catalytic activity using recombinant enzyme produced from insect cells. Full-length IRAK4 protein, carrying an N-terminal His6-Tag, was obtained from Life Technologies (Carlsbad, Calif., USA). The IRAK1 construct was produced internally and was comprised of IRAK1 residues Arg194 to Ser712, preceded by an NH2-terminal His6 tag and the coding sequence for glutathione-S-transferase.

human IRAK4, sequence (Q9NWZ3 whole entry): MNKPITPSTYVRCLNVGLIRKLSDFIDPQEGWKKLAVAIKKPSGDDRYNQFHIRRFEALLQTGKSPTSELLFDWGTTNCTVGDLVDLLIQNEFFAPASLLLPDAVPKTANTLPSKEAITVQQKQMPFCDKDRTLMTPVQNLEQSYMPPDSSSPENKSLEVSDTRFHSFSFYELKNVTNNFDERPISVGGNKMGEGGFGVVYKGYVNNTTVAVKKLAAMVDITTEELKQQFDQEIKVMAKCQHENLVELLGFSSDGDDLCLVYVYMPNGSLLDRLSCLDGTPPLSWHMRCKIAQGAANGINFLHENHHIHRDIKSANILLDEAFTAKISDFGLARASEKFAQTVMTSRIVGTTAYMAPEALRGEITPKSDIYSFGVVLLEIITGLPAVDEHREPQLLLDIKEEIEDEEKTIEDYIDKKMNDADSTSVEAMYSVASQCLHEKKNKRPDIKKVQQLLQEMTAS

| Compound | Ki |
| --- | --- |
| CC(C)(O)[C@H](F)CN1Cc2cc(NC(=O)c3cnn4cccnc34)c(N3CCOCC3)cc2S1(=O)=O [Example 289, N-[2-[(2R)-2-Fluoro-3-hydroxy-3-methyl-butyl]-6-morpholino-1,1-dioxo-3H-1,2-benzothiazol-5-yl]pyrazolo[1,5-a]pyrimidine-3-carboxamide] | 8 nM |
| COc1cc2c(cc1NC(=O)c1cnn3cccnc13)CC(C)(C)O2 [Example 34, N-(6-Methoxy-2,2-dimethyl-2,3-dihydrobenzofuran-5-yl)pyrazolo[1,5-a]pyrimidine-3-carboxamide] | 38 nM |
| CC1(C)Cc2cc(NC(=O)c3cnn4cccnc34)c(N3CC4(CCCOC4)C3)cc2O1 [Example 194, N-[2,2-dimethyl-6-(6-oxa-2-azaspiro[3.5]nonan-2-yl)-3H-benzofuran-5-yl]pyrazolo[1,5-a]pyrimidine-3-carboxamide] | 410 nM |
| CC(C)(O)[C@@]1(C)Cc2cc(NC(=O)c3cnn4cccnc34)c(N3CCOCC3)cc2O1 [Example 157, (R)—N-(2-(2-Hydroxypropan-2-yl)-2-methyl-6-morpholino-2,3-dihydrobenzofuran-5-yl)pyrazolo[1,5-a]pyrimidine-3-carboxamide] | 8.8 nM |
| CNC(=O)[C@@]1(C)Cc2cc(NC(=O)c3cnn4cccnc34)c(N3CCOCC3)cc2O1 [Example 49, (R)—N-(2-Methyl-2-(methylcarbamoyl)-6-morpholino-2,3-dihydrobenzofuran-5-yl)pyrazolo[1,5-a]pyrimidine-3-carboxamide] | 22 nM |
| CC(C)(O)CCN1Cc2cc(NC(=O)c3cnn4cccnc34)c(N3CCOCC3)cc2C1=O [Example 175, N-[2-(3-hydroxy-3-methyl-butyl)-6-morpholino-1-oxo-isoindolin-5-yl]pyrazolo[1,5-a]pyrimidine-3-carboxamide] | 2.2 nM |
| CC1(C)Cc2cc(NC(=O)c3cnn4cccnc34)c(OCC(F)F)cc2O1 [Example 302, N-(6-(2,2-Difluoroethoxy)-2,2-dimethyl-2,3-dihydrobenzofuran-5-yl)pyrazolo[1,5-α]pyrimidine-3-carboxamide] | 11 nM |
| CC(C)(O)[C@]1(C)Cc2cc(NC(=O)c3cnn4cccnc34)c(O[C@H]3CC[C@H](O)CC3)cc2O1 [Example 314, N-[(2S)-6-(trans-4-Hydroxycyclo-hexoxy)-2-(1-hydroxy-1-methyl-ethyl)-2-methyl-3H-benzofuran-5-yl]pyrazolo[1,5-a]pyrimidine-3-carboxamide] | 65 nM |
| Cc1cnc2c(C(=O)Nc3cc4c(cc3N3CCN(CC(F)F)CC3)OC(C)(CO)C4)cnn2c1 (stereo not shown) [Example 325, N-(6-(4-(2,2-Difluoroethyl)piperazin-1-yl)-2-(hydroxymethyl)-2-methyl-2,3-dihydrobenzofuran-5-yl)-6-methylpyrazolo[1,5-a]pyrimidine-3-carboxamide] | 6 nM |
| CC(C)(O)CN1Cc2cc(NC(=O)c3cnn4cccnc34)c(N3CCOCC3)cc2C1=O [Example 176, N-[2-(2-hydroxy-2-methyl-propyl)-6-morpholino-1-oxo-isoindolin-5-yl]pyrazolo[1,5-a]pyrimidine-3-carboxamide] | 51 nM |
| Cc1cnc2c(C(=O)Nc3cc4c(cc3N3CCC(CO)CC3)OC(C)(C)C4)cnn2c1 [Example 12, N-(6-(4-(Hydroxymethyl)piperidin-1-yl)-2,2-dimethyl-2,3-dihydrobenzofuran-5-yl)-6-methylpyrazolo[1,5-a]pyrimidine-3-carboxamide] | 2 nM |
| CC1(C)Cc2cc(NC(=O)c3cnn4cccnc34)c(N3CCC(n4ccnc4)CC3)cc2O1 [Example 206, N-(6-(4-(1H-imidazol-1-yl)piperidin-1-yl)-2,2-dimethyl-2,3-dihydrobenzofuran-5-yl)pyrazolo[1,5-a]pyrimidine-3-carboxamide] | 3.4 nM |
| CC1(C)Cc2cc(NC(=O)c3cnn4cccnc34)c(N3C[C@@H]4[C@H](C3)[C@H]4C(N)=O)cc2O1 [Example 186, N-[6-[(1S,5R)-6-carbamoyl-3-azabicyclo[3.1.0]hexan-3-yl]-2,2-dimethyl-3H-benzofuran-5-yl]pyrazolo[1,5-a]pyrimidine-3-carboxamide] | 15 nM |
| O=C(Nc1cc2c(cc1N1CCOCC1)C(=O)N(CC(F)(F)CO)C2)c1cnn2cccnc12 [Example 273, N-[2-(2,2-Difluoro-3-hydroxy-propyl)-6-morpholino-1-oxo-isoindolin-5-yl]pyrazolo[1,5-a]pyrimidine-3-carboxamide] | 37 nM |
| O=C(Nc1cc2c(cc1N1CCOCC1)C(=O)N(C1CCOC1)C2)c1cnn2cccnc12 (stereo not shown) [Example 254, N-(6-Morpholino-1-oxo-2-tetrahydrofuran-3-yl-isoindolin-5-yl)pyrazolo[1,5-a]pyrimidine-3-carboxamide] | 26 nM |
| COCC1CN(c2cc3c(cc2NC(=O)c2cnn4cccnc24)CC(C)(C)O3)CCO1 (stereo not shown) [Example 198, N-(6-(2-(methoxymethyl)morpholino)-2,2-dimethyl-2,3-dihydrobenzofuran-5-yl)pyrazolo[1,5-a]pyrimidine-3-carboxamide] | 140 nM |
| CC1(C)Cc2cc(NC(=O)c3cnn4cccnc34)c(N3CCC(F)(CO)CC3)cc2O1 [Example 40, N-(6-(4-Fluoro-4-(hydroxymethyl)piperidin-1-yl)-2,2-dimethyl-2,3-dihydrobenzofuran-5-yl)pyrazolo[1,5-a]pyrimidine-3-carboxamide] | 1 nM |
| CC1(C)Cc2cc(NC(=O)c3cnn4cccnc34)c(C3CCNCC3)cc2O1 [Example 62, N-[2,2-Dimethyl-6-(4-piperidyl)-3H-benzofuran-5-yl]pyrazolo[1,5-a]pyrimidine-3-carboxamide] | 260 nM |
| N-[(2R)-6-[4-(2,2-difluoroethyl)piperazin-1-yl]-2-(hydroxymethyl)-2-methyl-3H-benzofuran-5-yl]-6-fluoro-pyrazolo[1,5-a]pyrimidine-3-carboxamide [Example 494] | 40 nM |
| C[C@@]1(CO)Cc2cc(NC(=O)c3cnn4cc(Cl)cnc34)c(N3CCOCC3)cc2O1 [Example 165, (S)-6-Chloro-N-(2-(hydroxymethyl)-2-methyl-6-morpholino-2,3-dihydrobenzofuran-5-yl)pyrazolo[1,5-a]pyrimidine-3-carboxamide] | 5.6 nM |

Second part, the compound after the results:

| Ki | Compound |
| --- | --- |
| 3.3 nM | CC1(C)Cc2cc(NC(=O)c3cnn4cccnc34)c(O[C@@H]3CCN(CC(N)=O)C3)cc2O1 [Example 445, (R)—N-(6-((1-(2-amino-2-oxoethyl)pyrrolidin-3-yl)oxy)-2,2-dimethyl-2,3-dihydrobenzofuran-5-yl)pyrazolo[1,5-a]pyrimidine-3-carboxamide] |
| 350 nM | CC(C)N1Cc2cc(NC(=O)c3cnn4ccc(C(F)F)nc34)c(N3CCOCC3)cc2C1=O [Example 484, 5-(Difluoromethyl)-N-(2-isopropyl-6-morpholino-1-oxo-isoindolin-5-yl)pyrazolo[1,5-a]pyrimidine-3-carboxamide] |
| 38 nM | CC(C)(O)[C@H]1CC[C@@H](N2Cc3cc(NC(=O)c4cnn5cccnc45)c(N4CCOCC4)cc3C2=O)CC1 [Example 547, Cis-N-[2-[4-(1-Hydroxy-1-methyl-ethyl)cyclohexyl]-6-morpholino-1-oxo-isoindolin-5-yl]pyrazolo[1,5-a]pyrimidine-3-carboxamide] |
| 6 nM | CC1(C)Cc2cc(NC(=O)c3cnn4cc(C#N)cnc34)c(N3CCOCC3)cc2O1 [Example 407, 6-Cyano-N-(2,2-dimethyl-6-morpholino-2,3-dihydrobenzofuran-5-yl)pyrazolo[1,5-a]pyrimidine-3-carboxamide] |
| 8.1 nM | CNc1cnc2c(C(=O)Nc3cc4c(cc3N3CCOCC3)OC3(CCN(C)CC3)C4)cnn2c1 [Example 380, N-(1′-methyl-6-morpholino-3H-spiro[benzofuran-2,4′-piperidin]-5-yl)-6-(methylamino)pyrazolo[1,5-a]pyrimidine-3-carboxamide] |
| 7 nM | CNc1cnc2c(C(=O)Nc3cc4c(cc3N3CCOCC3)C(=O)N(C(C)C)C4)cnn2c1 [Example 398, N-(2-Isopropyl-6-morpholino-1-oxoisoindolin-5-yl)-6-(methylamino)pyrazolo[1,5-a]-pyrimidine-3-carboxamide] |
| 3 nM | C[C@@]1(CO)Cc2cc(NC(=O)c3cnn4cccnc34)c(N3CCC(C#N)CC3)cc2O1 [Example 336, (S)-N-(6-(4-cyanopiperidin-1-yl)-2-(hydroxymethyl)-2-methyl-2,3-dihydrobenzofuran-5-yl)pyrazolo[1,5-a]pyrimidine-3-carboxamide] |
| 12 nM | C[C@]1(CCO)Cc2cc(NC(=O)c3cnn4cccnc34)c(N3CCOCC3)cc2O1 [Example 388, (R)—N-(2-(2-hydroxyethyl)-2-methyl-6-morpholino-2,3-dihydrobenzofuran-5-yl)pyrazolo[1,5-a]pyrimidine-3-carboxamide] |
| 6.3 nM | CC(C)(O)[C@@]1(C)Cc2cc(NC(=O)c3cnn4cccnc34)c(N3CCN(CC(F)F)CC3)cc2O1 [Example 360, (R)—N-(6-(4-(2,2-Difluoroethyl)piperazin-1-yl)-2-(2-hydroxypropan-2-yl)-2-methyl-2,3-dihydrobenzofuran-5-yl)pyrazolo[1,5-a]pyrimidine-3-carboxamide] |
| 5.2 nM | CC1(C)Cc2cc(NC(=O)c3cnn4cccnc34)c(N3CCN(Cc4ccn[nH]4)CC3)cc2O1 [Example 505, N-(6-(4-((1H-pyrazol-5-yl)methyl)piperazin-1-yl)-2,2-dimethyl-2,3-dihydrobenzofuran-5-yl)pyrazolo[1,5-a]pyrimidine-3-carboxamide] |
| 210 nM | CC1(C)Cc2cc(NC(=O)c3cnn4ccc(C[C@H]5CNC(=O)C5)nc34)c(C3CC3)cc2O1 [Example 513, (R)—N-(6-cyclopropyl-2,2-dimethyl-2,3-dihydrobenzofuran-5-yl)-5-((5-oxopyrrolidin-3-yl)methyl)pyrazolo[1,5-a]pyrimidine-3-carboxamide] |
